Test results published in patent publication US20230293599A1, “BACTERIAL COMPOSITIONS WITH ANTI-INFLAMMATORY ACTIVITY” (Universiteit Gent, priority 2020, published 2023).
Like-named read-outs stand apart in the source and are kept apart here.

How the values were obtained:
[1] = tested on: S. aureus; format: cell-based, Staphylococcus aureus
Outline: (§1)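 Growth on 190 carbon sources in Biolog PM1 and PM2 panels, inoculated per manufacturer's protocol. Growth curves followed for 35 hours by absorbance at 590 nm.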

[2] = tested on: R. dentocariosa; test: Biolog Phenotype Microarray PM1-2 growth on carbon sources; format: cell-based, Rothia dentocariosa; details: 35 hours, absorbance 590 nm, n = 1; cells without values AUC < 50
Procedure: (§2) Using Phenotype Microarray (PM) panels (Biolog), the influence of 190 carbon sources on the growth of the potential probiotic species R. mucilaginosa, R. dentocariosa, R. gilardii, G. haemolysans, and common respiratory pathogens P. aeruginosa, and S. aureus was determined. PM1 and PM2 panels (Biolog) were inoculated according to the manufacturer's instructions. Growth curves were generated for 35 hours by measuring the absorbance at 590 nm using an EnVision (Perkin Elmer) plate reader.

[3] = tested on: G. haemolysans; test: as above; format: cell-based, Gemella haemolysans; details: 35 hours, absorbance 590 nm, n = 1; cells without values AUC < 50
Procedure: as §2

[4] = tested on: R. gilardii; test: as above; format: cell-based, Roseomonas gilardii; details: 35 hours, absorbance 590 nm, n = 1; cells without values AUC < 50
Procedure: as §2

[5] = tested on: R. mucilaginosa; test: as above; format: cell-based, Rothia mucilaginosa; details: 35 hours, absorbance 590 nm, n = 1; cells without values AUC < 50
Procedure: as §2

[6] = tested on: P. aeruginosa; test: as above; format: cell-based, Pseudomonas aeruginosa; details: 35 hours, absorbance 590 nm, n = 1; cells without values AUC < 50
Outline: as §1

[7] = tested on: NF-κB pathway; test: NF-κB-luciferase reporter 3-D A549 cells stimulated with LPS (Example 2); format: cell-based, human; details: acetate at 28.3 mM and 18.0 mM, 4-hour incubation (FIG. 10)
Procedure: 3-D cells of the human adenocarcinoma alveolar lung epithelial cell line A549 transfected with an NF-κB-luciferase reporter (BPS Bioscience, San Diego, CA) were prepared as described previously for A549 cells (Crabbé et al., 2016; Barrila et al., 2010; Harris et al. 2007; Chen et a., 2019). Briefly, a monolayer of NF-κB-A549 cells was grown in T75 cell culture flasks containing GTSF-2 medium (HyClone, Logan, UT) supplemented with 1.5 g/L sodium bicarbonate (Sigma-Aldrich), 10% fetal bovine serum (FBS, Life technologies), 2.5 mg/L insulin transferring sodium selenite (Lonza) and 1% penicillin-streptomycin (pen-strep, Life Technologies) at 37° C. under 5% CO2. At confluence, the cells were seeded in the Rotating Wall Vessel (RWV) bioreactor with type-1 collagen coated dextran beads at a cell to bead ratio of 2:1 and were cultured for 11 to 14 days. […]
The NF-κB pathway was activated in 3-D NF-κB -A549 cells by 4 hours stimulation with LPS (100 μg/mL) in the presence or absence (positive control) of each of the isolates (Table 1) at varying multiplicity of infection (MOI) starting from an MOI of 100 to an MOI of 1.56 by performing 1:2 serial dilutions. […] After 4 hours incubation, 3-D epithelial cells containing the NF-κB -luciferase reporter were transferred to a black 96-well plate for analysis of luminescence. […] Luminescence was measured by an EnVision (Perkin Elmer) luminometer.

| Molecule | AUC of growth curve, S. aureus [1] | AUC of growth curve, R. dentocariosa [2] | AUC of growth curve, G. haemolysans [3] | AUC of growth curve, R. gilardii [4] | AUC of growth curve, R. mucilaginosa [5] | AUC of growth curve, P. aeruginosa [6] | effect on LPS-stimulated NF-κB pathway activation [7] | AUC of growth curve, S. aureus ([1]; 35 hours, absorbance 590 nm, n = 1, cells without values AUC < 50) |
| --- | --- | --- | --- | --- | --- | --- | --- | --- |
| O=C[C@H](O)[C@H](O)[C@@H](O)CO [L-Lyxose] | 308.4 | 474.8 | 430.7 | 765.9 | 377.5 | 1393.5 |  |  |
| C[C@H](O)[C@H](O)[C@@H](O)[C@@H](O)C=O [L-Rhamnose] | 423.5 | 149.9 | 104.6 | 178.6 | 197.8 | 265.3 |  |  |
| CC(=O)C(=O)O [Pyruvic Acid] | 763.0 | 343.3 | 552.9 | 215.7 | 205.5 | 877.9 |  |  |
| CC(=O)O [acetate] |  |  |  |  |  |  | did not reduce |  |
| OC[C@H]1O[C@H](O)[C@H](O)[C@@H](O)[C@@H]1O [α-D-Glucose] | 966.1 | 1288.0 | 1140.8 | 115.5 | 1068.2 | 830.2 |  |  |
| Pectin |  | 683.6 | 68.6 | 141.7 | 199.5 | 334.5 |  | 996.1 |
